Test results taken from PMC5492033, “The N-Terminal Region of the Ryanodine Receptor Affects Channel Activation” (Frontiers in Physiology, 2017).
Read-outs that look alike come from different tables or passages of the source. No end group written: not given here.

Tests used:
RyR2 channel = target: T1, RyR2 channel (Rattus norvegicus, UniProt B0LPN4); assay: Single RyR2 channel measurements in planar lipid bilayers; assay type: biochemical; settings: for EC50: 50% of maximum increase of open probability; for Kd: PO at 0.5–2 μM peptide, cytosolic Ca2+ 100 nM, read-out: Kp, dissociation constant of DPcpvtN2; for POmax, maximum open probability: PO0 0.0039
T1 construct: RyR2 channels were incorporated from a suspension of microsomal vesicles of the SR; from tissue; host or cells: rat (Wistar Han) heart ventricles, cardiac SR microsomes
Protocol: All experimental protocols were approved by the State veterinary and food administration of the Slovak Republic (Ro-3820/05-221, Ro-2821/09-221) and by the ethical committee of the Centre of Biosciences. All methods were carried out in accordance with the European directive 2010/63/EU. Male rats (Wistar Han, 240–310 g, breeding station Dobra Voda, reg. No. SK CH 24011, Slovak Republic) were anesthetized with sodium pentobarbital (50 mg kg^−1 i.p.), the hearts were excised, and cardiac SR microsomes were isolated from rat heart ventricles by differential centrifugation without further purification steps, as previously described (Gaburjakova and Gaburjakova, [2006]; Faltinova and Zahradnikova, [2013]), snap frozen in liquid nitrogen and stored at −70°C.
Preparation of bilayers, incorporation of channels and electrophysiological measurements were performed as previously described (Faltinova and Zahradnikova, [2013]). In brief, bilayer lipid membranes were formed over a 20–50 μm aperture in a polystyrene chamber. The aperture was first treated with a solution (26 mg/ml) of DOPS, DOPC and DPPC (3:5:5) in N-decane (Aldrich, USA). After evaporation of N-decane, the cis and trans compartments of the bilayer chamber were filled with the solutions (in mmol/l): cis, 250 HEPES, 50 KCl, 1 EGTA, 125 TRIS, 0.5 CaCl2, pH 7.35, [Ca^2+] = 90 nM; trans, 30 HEPES, 50 KCl, 1 Ca(OH)2, 7 Ba(OH)2, pH 7.35, and the bilayer was formed using a mixture of DOPS and DOPE (3:10; 26 mg/ml in N-decane). After formation of a bilayer, RyR2 channels were incorporated from a suspension of microsomal vesicles of the SR, added to the cis compartment. RyR identity was checked at the beginning of the experiment at high Ca^2+, when it was characteristic by its single-channel amplitude and open duration (Tencerova et al., [2012]; Faltinova and Zahradnikova, [2013]). Under the above ionic conditions, no other channels have similar properties. Detection of RyR channel was followed by perfusion to a basal Ca^2+ level. The identity of RyR was occasionally further tested at the end of the experiment by addition of 100 μM Ca^2+.
Currents through the incorporated single RyR2 channels were measured in voltage-clamp mode at 0 mV with MultiClamp 700B amplifier (Molecular Devices, USA) with a 50 GΩ feed-back resistor. The signal was filtered by a 4-pole Bessel filter at 1 kHz and digitized using an A/D converter (Digidata 1440A, Molecular Devices, USA) at a frequency of 4 kHz. Acquisition and analysis were performed using pClamp software (Ver. 10, Molecular Devices, USA) and Origin Pro (Ver. 9, OriginLab Corporation, USA).
Equilibrium open probabilities for different gating models (Equations 1–3) were determined from the gating schemes. Equations were derived using Mathematica (Ver. 10, Wolfram Research, USA) as previously described (Zahradnik et al., [2005]). The value of EC50 was calculated in Mathematica from Equations (1) to (3) as the ligand concentration, at which the increase of open probability reached 50% of maximum increase.

[1] = CD spectroscopy (secondary structure); assay type: physicochemical
Protocol: Circular dichroism (CD) measurements were performed using a Jasco J-810 spectropolarimeter (Japan). CD measurements were performed in the 198–250 nm wavelength range, which enabled estimation of the secondary structure of the peptide. The DPcpvtN2 peptide was dissolved either in 2 mM Na-phosphate (pH 7.0) or in 99.8% ethanol to a final concentration of 1.5–7 μM. CD spectra were expressed as averages of 3–5 consecutive scans. 1 mm cuvette was used for measurements. Typically, a time constant of 2 s, bandwidth of 2.0 nm, scanning speed 200 nm/min and the standard sensitivity were used. The spectra were analyzed using the web server CAPITO (Wiedemann et al., [2013]), which provides the percentage of α-helical, β-sheet and random coil in the secondary structure.

RyR2 = tested on: RyR2; design: method as in 2 sources, one per row (each row's own in cited_ref): ref Zahradnikova and Zahradnik, 1993 ||| ref Faltinova and Zahradnikova, 2013; settings: ref Zahradnikova and Zahradnik, 1993; cited from earlier work

T1 sequence (B0LPN4 whole entry): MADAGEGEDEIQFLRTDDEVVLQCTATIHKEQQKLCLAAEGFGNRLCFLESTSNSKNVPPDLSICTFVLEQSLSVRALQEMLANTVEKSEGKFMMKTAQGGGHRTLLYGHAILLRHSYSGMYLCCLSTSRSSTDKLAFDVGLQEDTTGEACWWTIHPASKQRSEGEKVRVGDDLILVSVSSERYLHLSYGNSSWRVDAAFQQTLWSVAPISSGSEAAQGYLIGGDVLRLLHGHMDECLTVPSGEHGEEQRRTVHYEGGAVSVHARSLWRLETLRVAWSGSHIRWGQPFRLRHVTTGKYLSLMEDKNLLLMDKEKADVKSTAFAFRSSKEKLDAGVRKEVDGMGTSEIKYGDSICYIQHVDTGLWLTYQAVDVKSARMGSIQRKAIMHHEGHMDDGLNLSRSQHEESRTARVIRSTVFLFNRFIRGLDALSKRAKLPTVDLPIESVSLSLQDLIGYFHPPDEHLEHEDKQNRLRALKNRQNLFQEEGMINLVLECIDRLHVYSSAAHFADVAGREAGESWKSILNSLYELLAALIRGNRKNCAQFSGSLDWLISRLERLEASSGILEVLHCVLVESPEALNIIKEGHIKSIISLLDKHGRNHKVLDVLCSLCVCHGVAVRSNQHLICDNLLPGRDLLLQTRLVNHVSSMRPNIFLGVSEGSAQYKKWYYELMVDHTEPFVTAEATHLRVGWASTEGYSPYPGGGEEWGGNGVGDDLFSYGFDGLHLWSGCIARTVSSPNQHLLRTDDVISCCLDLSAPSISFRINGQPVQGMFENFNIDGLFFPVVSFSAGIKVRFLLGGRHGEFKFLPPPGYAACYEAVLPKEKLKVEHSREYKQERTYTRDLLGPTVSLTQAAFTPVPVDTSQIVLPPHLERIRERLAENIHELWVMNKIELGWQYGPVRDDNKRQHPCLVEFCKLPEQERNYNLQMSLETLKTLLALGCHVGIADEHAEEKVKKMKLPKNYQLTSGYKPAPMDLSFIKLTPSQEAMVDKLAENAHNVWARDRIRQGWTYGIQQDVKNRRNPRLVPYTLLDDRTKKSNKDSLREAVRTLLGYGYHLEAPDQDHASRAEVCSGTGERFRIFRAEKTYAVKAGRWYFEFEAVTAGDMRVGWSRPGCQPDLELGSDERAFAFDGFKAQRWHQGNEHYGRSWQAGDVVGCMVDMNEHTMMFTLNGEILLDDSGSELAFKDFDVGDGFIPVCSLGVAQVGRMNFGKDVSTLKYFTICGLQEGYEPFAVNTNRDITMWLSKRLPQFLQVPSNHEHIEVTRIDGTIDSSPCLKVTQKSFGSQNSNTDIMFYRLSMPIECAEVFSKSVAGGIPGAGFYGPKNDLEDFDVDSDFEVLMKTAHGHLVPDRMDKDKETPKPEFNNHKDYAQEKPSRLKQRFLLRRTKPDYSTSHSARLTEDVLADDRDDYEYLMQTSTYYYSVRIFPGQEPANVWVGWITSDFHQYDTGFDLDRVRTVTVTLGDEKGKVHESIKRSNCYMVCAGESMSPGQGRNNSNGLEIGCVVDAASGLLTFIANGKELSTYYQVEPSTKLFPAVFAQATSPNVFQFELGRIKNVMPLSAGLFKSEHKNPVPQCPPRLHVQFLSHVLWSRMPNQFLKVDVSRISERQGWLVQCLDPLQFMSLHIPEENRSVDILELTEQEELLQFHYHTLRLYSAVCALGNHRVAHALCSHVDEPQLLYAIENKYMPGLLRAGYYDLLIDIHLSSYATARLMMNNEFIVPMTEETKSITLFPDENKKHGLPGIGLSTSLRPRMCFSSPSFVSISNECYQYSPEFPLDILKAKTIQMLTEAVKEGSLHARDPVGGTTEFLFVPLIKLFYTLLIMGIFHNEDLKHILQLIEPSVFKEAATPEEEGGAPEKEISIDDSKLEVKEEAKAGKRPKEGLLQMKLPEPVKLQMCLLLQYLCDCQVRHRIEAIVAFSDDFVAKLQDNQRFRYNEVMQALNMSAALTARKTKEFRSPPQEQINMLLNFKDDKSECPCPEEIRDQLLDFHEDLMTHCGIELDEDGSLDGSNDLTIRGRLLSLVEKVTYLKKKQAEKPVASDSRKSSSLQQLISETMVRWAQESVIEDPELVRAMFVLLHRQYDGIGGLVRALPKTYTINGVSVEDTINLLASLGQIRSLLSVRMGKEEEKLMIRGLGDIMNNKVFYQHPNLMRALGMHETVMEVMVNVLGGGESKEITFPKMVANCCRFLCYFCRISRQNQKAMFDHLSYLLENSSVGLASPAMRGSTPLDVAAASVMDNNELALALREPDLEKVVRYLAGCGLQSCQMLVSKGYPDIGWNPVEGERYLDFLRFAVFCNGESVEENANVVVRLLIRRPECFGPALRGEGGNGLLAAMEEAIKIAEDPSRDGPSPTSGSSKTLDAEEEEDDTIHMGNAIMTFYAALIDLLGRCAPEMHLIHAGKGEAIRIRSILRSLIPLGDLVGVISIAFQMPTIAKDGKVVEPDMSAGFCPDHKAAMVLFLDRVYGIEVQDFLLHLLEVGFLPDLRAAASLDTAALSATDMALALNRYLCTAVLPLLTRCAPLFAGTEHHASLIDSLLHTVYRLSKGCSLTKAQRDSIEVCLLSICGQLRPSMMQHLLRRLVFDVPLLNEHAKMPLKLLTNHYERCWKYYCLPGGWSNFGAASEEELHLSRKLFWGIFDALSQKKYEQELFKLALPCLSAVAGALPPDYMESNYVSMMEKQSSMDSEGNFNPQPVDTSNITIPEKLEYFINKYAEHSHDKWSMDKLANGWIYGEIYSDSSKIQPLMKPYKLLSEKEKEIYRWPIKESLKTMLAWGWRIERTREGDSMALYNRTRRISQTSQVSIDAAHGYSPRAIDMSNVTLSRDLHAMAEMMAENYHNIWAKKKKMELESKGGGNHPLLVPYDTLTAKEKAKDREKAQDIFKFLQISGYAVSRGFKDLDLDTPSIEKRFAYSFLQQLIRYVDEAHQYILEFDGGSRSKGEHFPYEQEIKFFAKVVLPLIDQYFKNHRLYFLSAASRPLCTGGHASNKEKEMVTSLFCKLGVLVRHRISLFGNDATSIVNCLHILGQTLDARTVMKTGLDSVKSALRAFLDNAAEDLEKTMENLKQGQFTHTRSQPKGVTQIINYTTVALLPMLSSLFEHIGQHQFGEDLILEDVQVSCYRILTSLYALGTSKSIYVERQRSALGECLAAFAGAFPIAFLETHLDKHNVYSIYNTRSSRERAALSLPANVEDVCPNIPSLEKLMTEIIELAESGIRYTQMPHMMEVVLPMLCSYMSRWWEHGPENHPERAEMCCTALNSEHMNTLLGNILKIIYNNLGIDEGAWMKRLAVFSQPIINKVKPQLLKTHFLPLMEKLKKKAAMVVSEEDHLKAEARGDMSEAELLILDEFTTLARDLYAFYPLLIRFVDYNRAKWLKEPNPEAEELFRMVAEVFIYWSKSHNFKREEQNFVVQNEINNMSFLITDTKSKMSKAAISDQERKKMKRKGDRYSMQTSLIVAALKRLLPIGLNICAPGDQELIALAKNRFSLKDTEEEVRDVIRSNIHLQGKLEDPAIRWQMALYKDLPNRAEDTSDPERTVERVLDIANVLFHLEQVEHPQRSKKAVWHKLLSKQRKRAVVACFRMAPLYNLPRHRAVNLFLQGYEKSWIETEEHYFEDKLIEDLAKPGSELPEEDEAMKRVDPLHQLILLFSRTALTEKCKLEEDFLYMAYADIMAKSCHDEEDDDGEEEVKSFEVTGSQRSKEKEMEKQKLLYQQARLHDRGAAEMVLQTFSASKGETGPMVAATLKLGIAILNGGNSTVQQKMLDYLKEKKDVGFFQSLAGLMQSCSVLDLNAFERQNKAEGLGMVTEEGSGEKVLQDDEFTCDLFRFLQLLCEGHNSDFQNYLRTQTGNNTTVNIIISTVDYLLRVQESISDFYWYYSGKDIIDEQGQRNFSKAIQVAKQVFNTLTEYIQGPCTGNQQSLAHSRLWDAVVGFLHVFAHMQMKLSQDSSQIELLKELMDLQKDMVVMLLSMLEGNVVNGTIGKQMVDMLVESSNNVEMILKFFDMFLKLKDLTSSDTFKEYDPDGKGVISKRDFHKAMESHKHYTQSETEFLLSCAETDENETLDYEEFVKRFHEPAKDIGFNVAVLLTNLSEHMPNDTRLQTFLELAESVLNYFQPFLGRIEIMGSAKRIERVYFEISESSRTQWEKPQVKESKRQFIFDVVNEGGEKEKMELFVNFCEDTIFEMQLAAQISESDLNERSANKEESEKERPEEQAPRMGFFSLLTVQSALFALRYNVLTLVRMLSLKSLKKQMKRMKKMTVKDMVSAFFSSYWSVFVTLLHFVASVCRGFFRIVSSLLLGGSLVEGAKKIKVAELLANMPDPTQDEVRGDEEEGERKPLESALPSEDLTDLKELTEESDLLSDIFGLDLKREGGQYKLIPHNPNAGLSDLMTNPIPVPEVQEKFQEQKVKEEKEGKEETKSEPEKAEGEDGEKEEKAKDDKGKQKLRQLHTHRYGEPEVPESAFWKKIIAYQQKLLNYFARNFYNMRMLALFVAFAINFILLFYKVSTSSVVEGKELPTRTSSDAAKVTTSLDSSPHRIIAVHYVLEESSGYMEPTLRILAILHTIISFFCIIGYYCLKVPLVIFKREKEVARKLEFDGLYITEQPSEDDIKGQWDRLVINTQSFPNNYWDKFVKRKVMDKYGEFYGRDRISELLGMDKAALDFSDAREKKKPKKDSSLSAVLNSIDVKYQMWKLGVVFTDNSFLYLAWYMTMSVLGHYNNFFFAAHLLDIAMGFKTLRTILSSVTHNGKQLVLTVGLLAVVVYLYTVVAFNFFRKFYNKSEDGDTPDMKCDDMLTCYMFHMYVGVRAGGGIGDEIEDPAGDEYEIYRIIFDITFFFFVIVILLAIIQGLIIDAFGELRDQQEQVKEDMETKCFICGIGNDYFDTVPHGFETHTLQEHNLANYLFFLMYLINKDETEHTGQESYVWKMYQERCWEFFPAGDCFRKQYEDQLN

HEESRTARVIRSTVFLFBRFIRGLDALSK (HEESRTARVIRSTVFLFXRFIRGLDALSK; not fully specified) [DPcpvtN2, domain peptide containing amino acids 410–438 of human RyR2, the central helix of the N-terminal region]
EC50 (RyR2 channel; calculated from Equation (1), gating scheme GS1): 66.4 µM | EC50 (RyR2 channel; calculated from Equation (2), gating scheme GS2): 17.6 µM | EC50 (RyR2 channel; calculated from Equation (3), gating scheme GS3): 0.41 µM | Kd (RyR2 channel; fit by gating scheme GS1 (Equation 1: one peptide bound opens channel), 0 mV, n = 9 channels): 351 ± 99 µM | Kd (RyR2 channel; fit by gating scheme GS2 (Equation 2: four peptides bound open channel; fit rejected), 0 mV, n = 9 channels): 3.35 ± 0.56 µM

HEESRTARVIRSTVFLFBRFIRGLDALSK [DPcpvtN2, domain peptide containing amino acids 410–438 of human RyR2, the central helix of the N-terminal region]
Effect on RyR2 open probability (RyR2 channel; 0.5–2 μM, cis side, diastolic conditions (100 nM cytosolic Ca2+, 1 mM luminal Ca2+, 0 mV), 2-min recording, n = 9 channels): Increase in open probability and the presence of long openings could be observed at all DPcpvtN2 concentrations | Time to occurrence of long openings after addition (RyR2 channel; 0.5–2 μM, diastolic conditions, 0 mV): ≤ 1 min | Open time (tO) of long openings (RyR2 channel; 0.5–2 μM, diastolic conditions, 0 mV, control openings tO ~ 15 ms): > 100 ms | fp, allosteric factor (RyR2 channel; fit by gating scheme GS3 (Equation 3), couples DPcpvtN2 binding to channel opening): 0.61 ± 0.10 | POmax, maximum open probability (RyR2 channel; gating scheme GS1): 1 | POmax, maximum open probability (RyR2 channel; gating scheme GS2): 1 | POmax, maximum open probability (RyR2 channel; gating scheme GS3): 0.0275 | Reversibility of the interaction between channel and peptide (RyR2 channel; inferred from concentration dependence of RyR open probability): readily reversible | Ellipticity in ethanol compared with aqueous solution ([1]; 1.5–3 μM, ethanol vs. phosphate buffer pH 7.0): an order of magnitude higher | Content of α-helix ([1]; CD spectra, 1.5–3 μM in phosphate buffer pH 7.0 or ethanol (solvent of the estimate not specified), CAPITO web server): 99%

O=S(=O)(O)c1cc(N=C=S)ccc1C=Cc1ccc(N=C=S)cc1S(=O)(=O)O [DIDS]
Effect on RyR2 activity (RyR2): all-or-none
